Measured values from patent US8889411B2, “Modulation of stem and progenitor cell differentiation, assays, and uses thereof” (Anthrogenesis Corporation, priority 2002, dated 2014).

Assays:
[1] = test system: Bone marrow and cord blood CD34+ progenitor cells; test: Differentiation of CD34+ progenitor cells into dendritic cells, cell surface phenotype by flow cytometry; assay type: cell-based, human; design: key to Cell Population CD15+ / Cell Population CD34+ CD38− / Cell Population CD34− CD38+ / Cell Population CD1a+ CD14− / Cell Population CD1a− CD14+: ↑: up arrow indicates an increase in the cell population; ↓: down arrow indicates a decrease; conditions: day 6; SCF, Flt-3L, GM-CSF and TNF-α; versus DMSO-treated control
Experimental: Bone marrow and cord blood CD34^+ progenitor cells were obtained from Clonetics and cultured in Iscove's MDM with BIT 95000 (StemCell Technologies) in the presence of SCF, Flt-3L, GM-CSF and TNF-α for 6 days, and then in the presence of GM-CSF and TNF-α for 6 additional days.
Analysis of cell surface phenotype: Cells were processed for double staining (30 min at 4° C.) at day 6 and day 12 using FITC and PE conjugated mAbs. Antibodies used were from BD Pharmingen: CD34 (PE), CD38 (FITC), CD33 (FITC), CD1a (FITC), CD86 (PE), CD14 (PE), CD83 (PE), CD54 (PE), CD11b (PE), CD11c (PE), HLA-DR (PE), CD15 (FITC), and CD133 (PE) from Miltenyi. Fluorescence analysis was performed on a FACScan flow cytometer after acquisition of 10,000 events (Coulter). Results presented are representative of four independent experiments.
The methodology described above, i.e., the examination of the effect of IMiDs such as ACTIMID™ on the differentiation on early progenitor cells, such as CD34^+ cells, can be applied to any compound of interest, the effect of which on differentiation is desired to be known. As an example of the extension of this assay method to other compounds, we compared the effect of retinoic acid (ATRA) and aspirin to that of ACTIMID™ on the differentiation of CD34^+ cells toward the DC lineage versus the control (DMSO-treated) cells. Retinoic acid was studied because of its known effect on cellular proliferation and differentiation, its therapeutic use in some cancer, and its known teratogenic effect. Conversely, we studied the effect of aspirin because it is a commonly-used anti-inflammatory drug with no immunomodulatory properties. The results at day 6 of CD34^+ progenitors cells cultured in the presence of SCF, Flt-3L, GM-CSF and TNF-α, with or without compound for a period of 6 days, are presented below in Table 2 (up arrow indicates an increase in the cell population; down arrow indicates a decrease).

[2] = test system: Murine Sca+Lin− hematopoietic progenitor cells; test: Generation of murine dendritic cells from bone marrow Sca+Lin− progenitors, cell surface phenotype; assay type: cell-based, mouse (C57BL/6)
Description: Mouse bone marrow from inbred C57BL/6 mice was obtained from Clonetics. Hematopoietic Sca+Lin− progenitors were enriched using SpinSep murine progenitor enrichment cocktail (StemCell Technologies) and cultured in Iscove's MDM with BIT 95000 (StemCell Technologies) in the presence of murine growth factors SCF, Flt3L, GM-CSF and M-CSF for 9 days, to promote expansion of Sca+ cells and a DC precursor phenotype and then in the presence of GM-CSF and TNF-α for 3 additional days to drive the cells to an immature DC phenotype. Enriched Sca+Lin− cells were cultured in the presence of DMSO (0.1%), ACTIMID™ at 10 μM or all-trans retinoic acid (ATRA) (ICN Biomedicals) at 10 μM from day 0. Compounds were added to cells at day 0 and day 9.
Analysis of Murine cell surface phenotype: Murine cells were processed for double staining (14 min at RT) at day 9 and day 12; using FITC and PE conjugated mAbs. Antibodies used were from BD Pharmingen: Sea (PE), CD11b (FITC), Gr-1 (FITC), CD86 (PE), CD14 (PE), CD80 (PE), I-A^b (PE), CD40 (PE) and CD32.1/16.1 (FITC) from Miltenyi. Fluorescence analysis was performed on a FACScan flow cytometer (Coulter) after acquisition of 10,000 events.

[3] = test system: Human Cord Blood CD34+ Cells; test: FACS analysis of proliferation and differentiation of cord blood CD34+ cells cultured with IL3, G-CSF and Kit-ligand; assay type: cell-based; conditions: for CD11b+ Cell Population / CD34+CD38+ Cell Population / CD34+CD38− Cell Population: 7 days
Experimental: CB CD34+ cells were initiated at 4×10^4 cells/ml in a 24-well plate in 20% FCS IMDM (fetal calf serum/Iscove's Modified Dulbecco's Medium) supplemented with cytokines (1 L3, GCSF and Kit-ligand) (R&D Systems, Inc.). Thalidomide (Thal), ACTIMID™ or REVIMID™ were included in the culture at three different concentrations: 5 μg/ml, 1 μg/ml and 0.3 μg/ml. The same volumes of DMSO were used as controls. A negative control without, any compound was also used (indicated by “none” in FIGS. 3-7). Cells were cultured at 37° C. and 5% CO2 in a humidified incubator for 7 days. Cells were then harvested from each well.
The total cell number from each well was determined by counting in a CELL-DYN® 1700 (Abbott Diagnostics) and the expression of CXCR4, CD45, CD34, CD38, CD 1 lb and Gly-A expression was analyzed by FACS (fluorescence-activated cell sorting) staining (FIGS. 3-7).
CB cells from two different donors (CB2276 and CB2417) were cultured, assayed and analyzed separately (Table 1).

[4] = test system: Purified human cord blood CD34+ cells; test: Monocyte production: CD34/CD14 staining of cord blood CD34+ cells cultured 14 days with cytokines; assay type: cell-based; conditions: 14 days
Experimental: Purified human cord blood CD34+ cells (greater than 90% CD34+) were cultured in 20% FCS IMDM medium supplemented with cytokines (IL3, IL6, G-CSF, KL and Epo) at 4×10^4 cells/ml for 14 days at 37° C. in a humidified 5% CO2 incubator. The experimental groups consisted of a group in which (i) no DMSO or chemical compounds were added (“None”), (ii) DMSO only, (iii) Thalidomide dissolved in DMSO, (iv) ACTIMID™ dissolved in DMSO, and (v) REVIMID™ dissolved in DMSO. Aliquots of cells were harvested and stained with CD34-PE conjugated monoclonal antibody and CD14-FITC conjugated monoclonal antibody.

Compound: CC(=O)Oc1ccccc1C(=O)O [Aspirin, acetylsalicylic acid, reference compound]
- Cell Population CD1a+ CD14− [1]: No change
- Cell Population CD1a− CD14+ [1]: No change
- Cell Population CD15+ [1]: No change
- Cell Population CD34+ CD38− [1]: No change
- Cell Population CD34− CD38+ [1]: No change

Compound: CC1=C(/C=C/C(C)=C/C=C/C(C)=C/C(=O)O)C(C)(C)CCC1 [All-trans RA, all-trans retinoic acid, reference compound]
- Cell Population CD1a+ CD14− [1]: ↓
- Cell Population CD1a− CD14+ [1]: ↓
- Cell Population CD15+ [1]: ↑
- Cell Population CD34+ CD38− [1]: ↓
- Cell Population CD34− CD38+ [1]: ↑
- CD80, I-A^b and Sca+ expression by day 9 ([2]; 10 μM from day 0, data not shown): marked downregulation
- expression of CD40 and CD80 ([2]; 10 μM, not shown): marked downregulation

Compound: O=C1CCC(N2C(=O)c3ccccc3C2=O)C(=O)N1 (stereo not drawn) [Thalidomide, reference compound]
- expression of CXCR4 ([3]; FACS analysis of surface proteins): not
- yield of cells ([3]; IL-3, KL and G-CSF, compared with the DMSO control): slightly higher number of cells
- effect on the proliferation of CD34+ cells ([3]; IL-3, KL and G-CSF, compared with the negative control (none)): do not have a significant effect
- CD11b+ Cell Population ([3]; donor CB2276, 0.3 μg/ml): 7.6%
- CD34+CD38+ Cell Population ([3]; donor CB2276, 0.3 μg/ml): 15.1
- CD34+CD38− Cell Population ([3]; donor CB2276, 0.3 μg/ml): 3.2
- CD11b+ Cell Population ([3]; donor CB2276, 1 μg/ml): 6.2%
- CD34+CD38+ Cell Population ([3]; donor CB2276, 1 μg/ml): 3.8
- CD34+CD38− Cell Population ([3]; donor CB2276, 1 μg/ml): 1.0
- CD11b+ Cell Population ([3]; donor CB2276, 5 μg/ml): 8.1%
- CD34+CD38+ Cell Population ([3]; donor CB2276, 5 μg/ml): 6.5
- CD34+CD38− Cell Population ([3]; donor CB2276, 5 μg/ml): 3.5
- CD11b+ Cell Population ([3]; donor CB2417, 0.3 μg/ml): 7.8%
- CD34+CD38+ Cell Population ([3]; donor CB2417, 0.3 μg/ml): 5.0
- CD34+CD38− Cell Population ([3]; donor CB2417, 0.3 μg/ml): 0.8
- CD11b+ Cell Population ([3]; donor CB2417, 1 μg/ml): 5.2%
- CD34+CD38+ Cell Population ([3]; donor CB2417, 1 μg/ml): 3.8
- CD34+CD38− Cell Population ([3]; donor CB2417, 1 μg/ml): 1.0
- CD11b+ Cell Population ([3]; donor CB2417, 5 μg/ml): 6.5%
- CD34+CD38+ Cell Population ([3]; donor CB2417, 5 μg/ml): 3.0
- CD34+CD38− Cell Population ([3]; donor CB2417, 5 μg/ml): 1.1
- CD38 status of the majority of CD34+ and CD34− cells ([3]; treated cell populations): mainly CD38+
- percentage of CD34+ cells of the total cells ([4]; IL3, IL6, G-CSF, KL and Epo, compound dissolved in DMSO): 0.24%
- production of monocytes (CD14+ cells) ([4]; relative to DMSO-treated group): similar
